Target: BMAL1 (Homo sapiens, UniProt O00327)
Set-up: PASB domain (residues 338–449); Protein thermal shift (PTS) fragment screen on recombinant human BMAL1(PASB), shift of melting temperature
Conditions: dTmB; binder

Chain of BMAL1 (O00327 338-449): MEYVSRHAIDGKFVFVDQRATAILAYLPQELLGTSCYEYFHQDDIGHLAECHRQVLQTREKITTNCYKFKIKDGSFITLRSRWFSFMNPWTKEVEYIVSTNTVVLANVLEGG

Structure (SMILES) | Bmal1(PASB) dTmB
c1ccc(C(c2ccccc2)N2CCCNCC2)cc1 [Prestw-Frag-1817, Compound 445] | -1.89 °C
O=c1[nH]nc(Cc2ccccc2)c2ccccc12 [Prestw-Frag-1561, Compound 106] | -0.90 °C
O=C(O)c1cnccn1 [Prestw-Frag-1495, Compound 269] | 0.04 °C
COc1cc2ccncc2cc1OC [Prestw-Frag-1183, Compound 290] | -1.26 °C
O=C1c2ccc(Cl)cc2CCc2cccnc21 [Prestw-Frag-3073, Compound 431] | -4.79 °C
Oc1ccccc1OCC(F)(F)F [Prestw-Frag-3225, Compound 113] | -0.44 °C
Cc1c(N)c(=O)n(-c2ccccc2)n1C [Prestw-Frag-1807, Compound 18] | -0.46 °C
O=C(O)/C=C/c1cnc[nH]1 [Prestw-Frag-3090, Compound 19] | -1.08 °C
O=C1Nc2ccccc2Nc2ccccc21 [Prestw-Frag-1904, Compound 439] | 0.05 °C
c1cc2c(cc1CN1CCNCC1)OCO2 [Prestw-Frag-1397, Compound 232] | -0.60 °C
Cc1cn[nH]c1C [Prestw-Frag-1408, Compound 109] | -1.01 °C
CNC(=O)c1c(-c2ccccc2)noc1C [Prestw-Frag-3690, Compound 210] | -0.42 °C
CNC(=O)c1cnc(C)cn1 [Prestw-Frag-1350, Compound 286] | 0.06 °C
NCCc1ccc(F)cc1F [Prestw-Frag-3746, Compound 138] | -0.34 °C
Cn1ccccc1=O [Prestw-Frag-2410, Compound 227] | -0.12 °C
c1ccc(CCn2ccnc2)cc1 [Prestw-Frag-2608, Compound 366] | -0.49 °C
O=C(O)CCC(=O)c1ccccc1 [Prestw-Frag-1768, Compound 87] | -0.11 °C
CCN(CCCCO)C(C)Cc1ccc(OC)cc1 (centres unmarked) [Prestw-Frag-2440, Compound 249] | -0.23 °C

Structure (SMILES) | Bmal1(PASB) dTmB
CS(=O)(=O)c1ccc(CO)cc1 [Prestw-Frag-2234, Compound 220] | -0.40 °C
S=c1[nH]c2ccccc2[nH]1 [Prestw-Frag-2539, Compound 1] | 6.28 °C
CC(=O)N(CCC(=O)O)c1ccccc1 [Prestw-Frag-2487, Compound 222] | 0.04 °C
O=C1COCCN1 [Prestw-Frag-3463, Compound 118] | -0.27 °C
CCN(CC)CCOC(=O)C1(c2ccccc2)CCCC1 [Prestw-Frag-2774, Compound 413] | -1.85 °C
CN1CCN(c2nccc(N)n2)CC1 [Prestw-Frag-1204, Compound 238] | -0.40 °C
c1ccc(C(c2ccccc2)n2cncn2)cc1 [Prestw-Frag-2645, Compound 443] | -2.46 °C
Nc1ncns1 [Prestw-Frag-3683, Compound 69] | -0.32 °C
NC(N)=NCc1cccc(I)c1 [Prestw-Frag-2111, Compound 312] | -0.90 °C
CC(=O)Nc1ncc([N+](=O)[O-])s1 [Prestw-Frag-1750, Compound 291] | 0.07 °C
FC(F)(F)c1ccn[nH]1 [Prestw-Frag-3726, Compound 192] | 0.30 °C
O=C(O)c1cc(-c2ccc(F)cc2)ccc1O [Prestw-Frag-1239, Compound 277] | -1.13 °C
OC(c1ccccc1)c1ccc(Cl)cc1 (centres unmarked) [Prestw-Frag-1106, Compound 474] | -2.07 °C
NC(=O)Cc1ccccc1 [Prestw-Frag-2580, Compound 73] | -0.74 °C
NS(=O)(=O)c1ccc(Cl)cc1 [Prestw-Frag-1977, Compound 122] | -0.58 °C
CCOc1ccccc1OCC1CNCCO1 (centres unmarked) [Prestw-Frag-2992, Compound 332] | -0.48 °C
O=C(O)c1cccnc1Nc1ccccc1 [Prestw-Frag-1191, Compound 63] | 0.02 °C
